Biological target: T1, VIM-1 (Pseudomonas aeruginosa, UniProt A0A0F7KYQ8)
T1 construct: made in house; host or cells: E. coli BL21(DE3) derivative, pET-9a
Assay: MBL inhibition, reporter substrate method, VIM-1
Format: biochemical
Settings: read-out: Inhibition of VIM-1 (dash)
Experimental: Compounds were prepared in DMSO at a final concentration of 50 mM prior to dilution in the assay buffer. The reaction rate was measured as the variation of absorbance observed upon substrate hydrolysis in a UV-Vis spectrophotometer or microplate reader at a wavelength of 300 nm (imipenem, meropenem), 260 nm (cefotaxime), or 482 nm (nitrocefin) and in the presence of a purified MBL enzyme (such as VIM-1, VIM-2, VIM-4, NDM-1, and IMP-1, at a final concentration ranging from 1 to 70 nM).
These enzymes were overproduced in derivatives of E. coli BL21(DE3) carrying a pET-9 a (IMP-1, VIM-1, VIM-2, and VIM-4) or pET-15 b (NDM-1) vector into which the metallo-β-lactamase-encoding open reading frame was cloned. Bacterial strains were grown in the auto-inducing medium, ZYP-5052, supplemented with 50 μg/mL kanamycin for 24 h at 37 °C [38]. IMP-1, VIM-1, VIM-2, and VIM-4 were purified by ion-exchange and gel filtration chromatography using an AKTA Purifier platform (GE Healthcare, Uppsala, Sweden) as previously described. NDM-1 (residues 37-270) was produced as an amino-terminal 6 xHis-tag fusion protein and was purified using affinity chromatography. After growth for 26 h at 25 °C, bacterial cells were harvested by centrifugation (10,000× g, 30 min, 4 °C), resuspended in 10 mM HEPES buffer (pH 7.5) containing 0.15 M NaCl (buffer A) in one-fifth of the original culture volume, and lysed by sonication. Cellular debris was removed by centrifugation (12,000× g, 40 min, 4 °C). The clarified sample was loaded on a HisTrap HP column (bed volume, 5 mL; GE Healthcare), followed by a wash step (25 mL) with buffer A containing 20 mM imidazole. Proteins were eluted using buffer A containing 350 mM imidazole. The resulting protein sample was desalted (HiPrep 26/10 Desalting column, GE Healthcare) using 20 mM triethanolamine (pH 7.2) supplemented with 50 μM ZnSO4 and concentrated using an Amicon Ultra-15 (MW cut-off, 10 kDa; Millipore, Burlington, MA, USA). The concentrated sample was loaded on a Superdex 75 prep grade column (XK16/100 column; bed volume, 140 mL; GE Healthcare) and the proteins eluted with buffer A containing 50 μM ZnSO4. The active fractions were pooled and stored at −20 °C. The purity of the protein preparations was estimated >95% by SDS-PAGE analysis. The authenticity of the enzyme preparations was confirmed by electron spray ionization mass spectrometry, as previously described.
The inhibition constants (Ki) were determined on the basis of a model of competitive inhibition by analyzing the dependence of the ratio v0/vi (v0, hydrolysis velocity in the absence of inhibitor; vi, hydrolysis velocity in the presence of inhibitor) as a function of [I] as already described. The slope of the plot of v0/vi vs. [I], which corresponds to Km^S/(Km^S + [S])Ki (where Km^S is the Km value of the reporter substrate and [S] its concentration in the reaction mixture) and allowed the calculation of the Ki value. Alternatively, a Dixon plot analysis was carried out by measuring the initial hydrolysis rates in the presence of variable concentrations of inhibitor and substrate. This allowed Ki values to be determined and supported the hypothesis that the various compounds behaved as competitive inhibitors of the various tested enzymes. The assays were performed in triplicate.

For `O=C(O)c1ccccc1CNn1c(-c2ccccc2)n[nH]c1=S` [Compound 1], the inhibition at 100 µM was < 30%.
